According to the RepoRT retention time repository (doi:10.1007/s11306-014-0727-x):
Where a name gives a salt, the structure may show the parent alone.

Assay: HILIC, Merck SeQuant ZIC-pHILIC, 100 × 2.1 mm, 5 µm, 25 °C; gradient (min/%B) 0/3 1/3 12/30 14.5/90 17/90 18.5/3 24/3
Details: stereoisomer not certain

Which LC retention time does the source give for `NC(=O)c1ccc[n+](C2OC(COP(=O)(O)OP(=O)([O-])OCC3OC(n4cnc5c(N)ncnc54)C(O)C3O)C(O)C2O)c1` (stereo not given) [Nicotinamide adenine dinucleotide] here?
Its LC retention time is 14.1 min.

Which LC retention time does the source give for `NCCO` [Ethanolamine] here?
Its LC retention time is 12.9 min.

Which LC retention time does the source give for `O=C(O)C1CCNCC1` [Isonipecotic acid] here?
Its LC retention time is 11 min.

For `Nc1ccn(C2OC(CO)C(O)C2O)c(=O)n1` (stereo not given) [Cytidine], which LC retention time is on record?
The LC retention time was 10.5 min.

For `NCCCC[C@H](N)C(=O)O` [L-Lysine], which LC retention time is on record?
The LC retention time was 15.9 min.

For `NC(CS)C(=O)O` (stereo not given) [Cysteine], which LC retention time is on record?
The LC retention time was 11.8 min.

With `C[C@@H](O)[C@H](N)C(=O)O` [L-threonine] as the compound, how does the LC retention time read?
The LC retention time was 12.5 min.

With `CC(N)=O` [Acetamide] as the compound, how does the LC retention time read?
The LC retention time was 2.38 min.

With `C[C@@H](OP(=O)(O)O)[C@H](N)C(=O)O` [O-phospho-L-threonine] as the compound, how does the LC retention time read?
The LC retention time was 14.5 min.

For `NC(CO)C(=O)O` [Serine L-], which LC retention time is on record?
Its LC retention time is 13.2 min.

Which LC retention time does the source give for `Nc1nc2c(ncn2C2OC(CO)C(O)C2O)c(=O)[nH]1` (stereo not given) [Guanosine] here?
The LC retention time was 10.6 min.

Which LC retention time does the source give for `CC1OC(OCC2OC(Oc3c(-c4ccc(O)c(O)c4)oc4cc(O)cc(O)c4c3=O)C(O)C(O)C2O)C(O)C(O)C1O` (stereo not given) [Rutin Trihydrate] here?
The LC retention time was 9.3 min.

With `Nc1ncnc2nc[nH]c12` [Adenine] as the compound, how does the LC retention time read?
Its LC retention time is 8.22 min.

Which LC retention time does the source give for `Oc1cc(O)c2c(c1)OC(c1ccc(O)c(O)c1)C(O)C2` (stereo not given) [Catechin] here?
The LC retention time was 8.63 min.

Which LC retention time does the source give for `NC(N)=O` [Urea] here?
The LC retention time was 7.16 min.

Which LC retention time does the source give for `CCCC[C@H](N)C(=O)O` [L-Norleucine] here?
Its LC retention time is 9.62 min.

With `O=C(O)C(O)C(O)C(OC1OC(CO)C(O)C(O)C1O)C(O)CO` (stereo not given) [Lactobionic acid] as the compound, how does the LC retention time read?
The LC retention time was 14.3 min.

With `Cc1ncc(COP(=O)(O)O)c(C=O)c1O` [Pyridoxal-5'-phosphate] as the compound, how does the LC retention time read?
Its LC retention time is 10.3 min.

For `Nc1ccc(C(=O)O)cc1` [P-Aminobenzoic acid], which LC retention time is on record?
Its LC retention time is 2.26 min.

With `NCCC(N)C(=O)O` (racemic) [DL-2-4-Diaminobutyric acid dihydrochloride] as the compound, how does the LC retention time read?
Its LC retention time is 15.9 min.

Which LC retention time does the source give for `COc1cc(-c2ccc(N)c(OC)c2)ccc1N` [Dianisidine o-] here?
Its LC retention time is 1.46 min.

For `NCC(=O)NCC(=O)O` [Glycylglycine], which LC retention time is on record?
The LC retention time was 14.4 min.

Which LC retention time does the source give for `Nc1ccnc(=O)[nH]1` [Cytosine] here?
Its LC retention time is 10.4 min.

Which LC retention time does the source give for `c1cnc2[nH]ccc2c1` [7-Azaindole] here?
The LC retention time was 1.74 min.

Which LC retention time does the source give for `Cn1c(=O)c2[nH]cnc2n(C)c1=O` [Theophylline] here?
Its LC retention time is 2.28 min.

For `CC(C)=CCNc1ncnc2nc[nH]c12` [6-(Y-Y-Dimethylallylamino)purine], which LC retention time is on record?
The LC retention time was 2.88 min.

Which LC retention time does the source give for `NCCS(=O)(=O)O` [Taurine] here?
Its LC retention time is 12.6 min.

Which LC retention time does the source give for `COc1ccc2[nH]cc(CC(N)C(=O)O)c2c1` (racemic) [5-Methoxy-DL-tryptophan] here?
The LC retention time was 9.74 min.

Which LC retention time does the source give for `Cc1cc2nc3c(=O)[nH]c(=O)nc-3n(CC(O)C(O)C(O)CO)c2cc1C` (stereo not given) [Riboflavin] here?
Its LC retention time is 7.85 min.

With `CN(C)Cc1ccccc1` [Dimethylbenzylamine N N-] as the compound, how does the LC retention time read?
Its LC retention time is 7.54 min.

For `CC(N)C(=O)O` (stereo not given) [Alanine], which LC retention time is on record?
Its LC retention time is 12.1 min.

With `O=c1c2ccccc2oc2ccccc12` [Xanthone] as the compound, how does the LC retention time read?
The LC retention time was 1.22 min.

With `N[C@@H](Cc1cnc[nH]1)C(=O)O` [L-Histidine monohydrochloride] as the compound, how does the LC retention time read?
Its LC retention time is 15.7 min.

Which LC retention time does the source give for `NC(N)=NCCC[C@H](N)C(=O)O` [L-Arginine] here?
The LC retention time was 16 min.

With `Nc1ncnc2c1ncn2C1OC(CO)C(O)C1O` (stereo not given) [Adenosine] as the compound, how does the LC retention time read?
The LC retention time was 7.78 min.

Which LC retention time does the source give for `COc1ccc2[nH]cc(CCN)c2c1` [5-methoxytryptamine] here?
The LC retention time was 9.56 min.

For `O=C(O)CC1OCC=C2CN3CCC45C6=CC(=O)C(=O)C([N+](=O)[O-])=C6NC4C1C2CC35` (stereo not given) [Cacotheline], which LC retention time is on record?
The LC retention time was 11.6 min.

Which LC retention time does the source give for `COc1cc2c(c(OC)c1OC)-c1ccc(OC)c(=O)cc1C(NC(C)=O)CC2` (stereo not given) [Colchicine] here?
The LC retention time was 1.36 min.

With `CC(C)(C)[C@H](N)C(=O)O` [L-tert-Leucine] as the compound, how does the LC retention time read?
Its LC retention time is 10 min.

With `CC(C)[C@@H](N)C(=O)O` [D-valine] as the compound, how does the LC retention time read?
The LC retention time was 10.5 min.

With `NC(CCS)C(=O)O` (racemic) [DL-Homocysteine] as the compound, how does the LC retention time read?
Its LC retention time is 11.1 min.

For `NC(=O)Cc1c[nH]c2ccccc12` [Indole-3-acetamide], which LC retention time is on record?
The LC retention time was 2.48 min.

Which LC retention time does the source give for `Cc1ncc(CO)c(CO)c1O` [Pyridoxine] here?
Its LC retention time is 9.21 min.

For `O=c1[nH]c(=O)c2[nH]cnc2[nH]1` [Xanthine], which LC retention time is on record?
Its LC retention time is 8.29 min.

For `O=C(CCc1ccc(O)cc1)c1c(O)cc(O)cc1OC1OC(CO)C(O)C(O)C1O` (stereo not given) [Phloridzin], which LC retention time is on record?
The LC retention time was 7.09 min.

For `NC(Cc1ccc(O)c(O)c1)C(=O)O` [Dihydroxyphenyl-analine L-3 4], which LC retention time is on record?
Its LC retention time is 12.7 min.

With `NCCc1ccc(O)cc1` [Tyramine] as the compound, how does the LC retention time read?
Its LC retention time is 10.5 min.

Which LC retention time does the source give for `CCC(N)C(=O)O` [L-a-Amino-n-butyric acid] here?
The LC retention time was 11.6 min.

For `OCC1OC(OC2C(CO)OC(O)C(O)C2O)C(O)C(O)C1O` (single isomer, unassigned; peak a) [Lactose Peak A], which LC retention time is on record?
The LC retention time was 13.5 min.

With `C1COCCN1` [Morpholine] as the compound, how does the LC retention time read?
The LC retention time was 10.4 min.
